PMC5164911, “Comparative Analysis of the Interaction between Different Flavonoids and PDIA3” (Oxidative Medicine and Cellular Longevity, 2016)
Where two headings read alike, the source gives them in different places.

What was measured:
PDIA3 [1] = target: T1, PDIA3 (Homo sapiens, UniProt P30101); settings: cited from earlier work
T1 construct: made in house; host or cells: E. coli BL21 (vector pET21)
T1 sequence (P30101 25-505): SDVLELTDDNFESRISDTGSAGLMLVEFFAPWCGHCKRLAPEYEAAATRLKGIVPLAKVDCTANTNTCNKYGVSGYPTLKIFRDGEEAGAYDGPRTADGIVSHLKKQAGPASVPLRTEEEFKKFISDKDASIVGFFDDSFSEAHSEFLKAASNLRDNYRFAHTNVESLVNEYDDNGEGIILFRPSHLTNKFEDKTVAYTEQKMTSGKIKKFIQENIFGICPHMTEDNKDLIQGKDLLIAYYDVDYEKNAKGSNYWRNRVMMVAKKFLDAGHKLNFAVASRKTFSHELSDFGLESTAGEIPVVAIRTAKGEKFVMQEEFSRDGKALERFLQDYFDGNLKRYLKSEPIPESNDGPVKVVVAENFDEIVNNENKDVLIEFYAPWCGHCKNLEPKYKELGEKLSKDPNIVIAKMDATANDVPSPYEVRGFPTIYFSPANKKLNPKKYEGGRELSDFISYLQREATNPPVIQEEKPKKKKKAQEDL

PDIA3 [2] = target: T1, PDIA3; settings: cited from earlier work; remark: listed apart in the source
PDIA3 [3] = target: PDIA3; parameters: method as in PMID 24530445; settings: cited from earlier work
PDIA3 [4] = target: T1, PDIA3; test: Fluorescence quenching titration of PDIA3 intrinsic fluorescence; format: binding
Method: Quantitative analysis of the interaction between individual flavonoids and PDIA3 was performed by fluorimetric titration. […] Briefly, solution of PDIA3 (0.5 μM) or a and a′ domains (1 μM) in phosphate buffered saline (PBS) containing DTT 0.1 mM and EDTA 0.2 mM were titrated in quartz cuvette by stepwise additions, at 5 min time intervals, of individual flavonoid solution (1 mM in PBS/ethanol 50 : 50 v/v freshly prepared from a 20 mM stock solution in DMSO). […] To minimize the inner-filter effect we limited the highest concentration reached in the titration test up to 10 μM. All experiments were carried out at 25°C. Each spectrum was the mean of three repeated scans. Fluorescence spectra of appropriate blanks (flavonoids without proteins) were recorded under the same experimental conditions and subtracted from the corresponding flavonoid-protein system to correct the fluorescence background.
Quenching analysis was performed on PDIA3 (0.5 μM), in the reduced form, by adding stepwise increasing concentration of each molecule and recording the protein fluorescence spectra. For some flavonoids the analysis was extended to isolate a′ domain (1 μM), always in the reduced form. […] For each ligand molecule the Stern-Volmer quenching constant was obtained by linear regression of plots of F 0/F versus [L].
The Stern-Volmer quenching constant may be expressed as K SV = K q τ 0, where K q is the quencher rate coefficient and τ 0 is the average lifetime of the emissive excited state of the protein in the absence of the quencher.
The number of binding sites (n) and the binding constant (K b) were obtained by plotting log((F 0 − F)/F) versus log(1/([L t] − n(F 0 − F)[P t]/F 0)) using the reiterative calculation process described by Sun et al., assuming a similar affinity for each binding site.

PDIA3 [5] = target: T1, PDIA3; test: Differential scanning fluorimetry (thermal stability, SYPRO Orange); format: binding; settings: 50 μM flavonoid, reduced PDIA3 1 μM
Method: Protein stability was tested by the fluorescence-based thermal stability assay or differential scanning fluorimetry (DSF) developed by Pantoliano and coworkers. DSF records the fluorescence emission signal from the binding of a dye (SYPRO orange) to the exposed hydrophobic patches upon protein unfolding. Fluorescence measurements were performed using a CFX96 Connect RT-PCR instrument (BioRad). 18 μl aliquots of protein solution (1 μM), freshly diluted in Tris Buffered saline (50 mM TrisHCl, pH 8.0, 150 mM NaCl) containing 0.1 mM DTT, 0.2 mM EDTA, and 1 : 1000 dilution of SYPRO Orange (50 mM stock solution in DMSO), were distributed in a 96-well plate. Sample wells were addition of increasing concentration (up to 50 μM) of individual flavonoid by adding 2 μl of 10-fold concentrated stock solutions freshly prepared. As control, the protein solution was added with 2 μl of the dilution buffer. A melting point analysis was recorded increasing the temperature from 20 to 95°C with an increment of 0.5°C and reading, at each temperature, the fluorescence in fluorescence resonance energy transfer mode (FRET). Each measure was the average of three sample wells reading and each DSF experiment was repeated at least three times. To calculate T m values, DSF data from the melting curve were exported and fitted to Boltzman equation using GraphPad software. Effect of flavonoids was evaluated comparing the T m values in presence and absence of each molecule.

PDIA3 [6] = target: T1, PDIA3; test: Disulfide reductase activity with DiE-GSSG fluorogenic probe; format: biochemical; settings: DiE-GSSG substrate; for Inhibition of disulfide reductase (redox) activity: 20 μM flavonoid (Figure 7)
Method: Disulfide reductase activity of ERp57 was monitored by sensitive fluorescent assay using dieosin glutathione disulfide (DiE-GSSG) as fluorogenic probe. DiE-GSSG was synthesized by the reaction of eosin isothiocyanate with oxidized glutathione (GSSG) according to the method of Raturi and Mutus with some modifications. DiE-GSSG concentration was determined spectrophotometrically (ℇ 525 = 88,000 M^-1 cm^−1). Disulfide reductase activity was assayed in a reaction buffer containing 2 mM EDTA, 150 nM DiE-GSSG, and 5 μM DTT in PBS. A 20 μl aliquot of a stock solution of PDIA3 (1 μM) was added to the reaction mixture and DiE-GSSG reduction was monitored at 545 nm with excitation at 520 nm, at 25°C with continuous stirring. Reductase activity was calculated as the initial velocity in fluorescence increase. To test the effect of flavonoids on PDIA3 activity, the protein stock solution was previously incubated for 15 minutes at room temperature with different concentrations of each flavonoid and then a 20 μl aliquot subjected to assay in a reaction buffer containing the same concentration of the flavonoid.
Fluorescence quenching constant (K SV) values were given as means ± standard deviation and values of disulfide reductase activity were expressed in % of control sample ± relative standard deviation. All measurements were performed at least three times. Dunnett's test was used to compare the obtained reductase activity data with the activity of the untreated protein and a p value of <0.01 was considered as statistically significant.

PDIA3 [7] = target: T1, PDIA3; test: DNA binding activity by EMSA; format: biochemical; settings: flavonoid 0 to 50 μM
Method: EMSA assay was performed using a 79-bp […] obtained by PCR as previously described. Amplified DNA was end-labeled by using 5-fluorescein-modified primers. 10 ng of DNA fragment was incubated with 1 μg of PDIA3 or a′ domain, in presence of increasing concentration of flavonoids (from 0 to 50 μM). Controls were performed using DNA alone and in the presence of each flavonoid. All tests were performed in 20 μl mixtures containing 20 mM Tris-HCl, pH 7.5, 50 mM NaCl, and 10% (v/v) glycerol. Samples were incubated for 1 hour at 25°C and then resolved on 5% polyacrylamide gels in 0,25% TBE buffer (22.5 mM Tris-borate, 5 mM EDTA, pH 8.3) at 150 V. Gel images were recorded using a ChemiDoc MP Imaging System (BioRad) equipped with an epi-blue excitation lamp and a 520 nm emission filter.

PDIA3 [8] = target: T1, PDIA3; parameters: method as in Trnková et al. [30]; settings: Figure 8, unit inferred; ref Trnková et al. [30]; read-out: Dissociation constant (Kd); cited from earlier work

COc1cc(C2Oc3cc([C@H]4Oc5cc(O)cc(O)c5C(=O)[C@@H]4O)ccc3OC2CO)ccc1O (stereo partly shown) [silibinin]
Effect on redox activity of PDIA3 (PDIA3 [1]): no effect
Effect on DNA binding capability of PDIA3 (PDIA3 [2]): no effect
dissociation constant (PDIA3 [3]): within micromolar range

O=c1c(O)c(-c2ccc(O)c(O)c2)oc2cc(O)cc(O)c12 [Quercetin, quercetin]
Stern-Volmer constant (K SV) (PDIA3 [4]; 0.5∗10^−6 M PDIA3 in reduced conditions, pH 7.4, 25°C, flavonoid 0 to 10∗10^−6 M, mean and standard deviation): 46226 ± 1406 M⁻¹
Kd (PDIA3 [4]; Figure 8, no unit printed in the picture, read-out: Dissociation constant (Kd)): 25.6 µM
bimolecular quenching rate constant (K q) (PDIA3 [4]; K SV = K q τ0 with τ0 of the order of 10^−8 s, reduced PDIA3, pH 7.4, 25°C): 4.62e+12 M⁻¹ s⁻¹
Kd (PDIA3 [4]; K d = 1/K b, reduced PDIA3, pH 7.4, 25°C, read-out: dissociation constant (K d)): 25.6 µM
binding constant (K b) (PDIA3 [4]; equation of Bi et al., reiterative calculation of Sun et al., reduced PDIA3, pH 7.4, 25°C): 39000 M⁻¹
Increase in melting temperature (T m) of PDIA3 (PDIA3 [5]): increased more than three degrees
Inhibition of disulfide reductase (redox) activity (PDIA3 [6]): 18%
Inhibition of disulfide reductase (redox) activity (PDIA3 [6]; listed as quercetin): approximately 20%
Effect on disulfide reductase activity (in words) (PDIA3 [6]): some inhibitory effect
Effect on DNA binding activity of PDIA3 (PDIA3 [7]): None

O=C(OC1Cc2c(O)cc(O)cc2OC1c1cc(O)c(O)c(O)c1)c1cc(O)c(O)c(O)c1 (stereo not shown) [Epigallocatechin gallate, epigallocatechin gallate]
Kd (PDIA3 [8]): 45.8 µM
Inhibition of redox activity (%) (PDIA3 [1]; Figure 8, ref Trnková et al. [30]): 21%
Effect on DNA binding (PDIA3 [2]; ref Trnková et al. [30]): Inhibition
